Results reported in patent publication US8883841B2, “Oncogenic ras-specific cytotoxic compound and methods of use thereof” (The Board of Regents of the University of Texas System, priority 2005, dated 2014).
Where two headings read alike, the source gives them in different places.

Legend:
PKCiota = assay: Immunohistochemical staining, subcellular localization of PKCiota; type: cell-based, human; conditions: 12 h; comparators at doses giving similar cell killing
Description: Effects on subcellular localization of PKCiota. […] To further investigate molecular mechanisms of Oncrasin action the inventors studied the subcellular localization of several molecules involved in Ras-signaling pathway because the functions of Ras and other proteins are directly related to their subcellular localizations. For this purpose, T29Kt1 or H460 cells were seeded on cover glass slides and treated with DMSO or Oncrasin-1 for 12 h. Cells were then fixed with paraformaldehyde, permeabilized with Triton X-100 and stained with various antibodies for immunohistochemical examination. […] Nevertheless, substantial subcellular localization change was detected for PKCiota after Oncrasin-1 treatment (FIG. 6). In both H460 and T29Kt1 cells, both PKCiota and PKCzeta were diffusely distributed in cells with high concentration on cell membrane in nucleus, consisting with previous reports that aPKC contains both nuclear localization signal (NLS) and nuclear export signal (NES), and can shuttle between cytoplasm and nucleus, which was regulated by intramolecular conformational changes, phosphorylation or by treatment with growth factors (Perander et al., 2001; White et al., 2002; Neri et al., 1999). […] Such aggregation of PKCiota was not observed in Oncrasin-resistant T29 and H1299 cells. The inventors then tested whether PKCiota aggregation in the nucleus can be induced by other chemotherapeutic agents such as 5-fluorouracil (5-FU) and paclitaxol.

H226B cells = assay: Cell viability, H226B lung cancer cells; type: cell-based, human; conditions: for IC50 (−LogM): H226B, Lung; for IC50: Homo sapiens
A549 cells = assay: Cell viability, A549 lung cancer cells; type: cell-based, human; conditions: A549, Lung
A549CK8 = assay: Cell viability, A549CK8 lung cancer cells; type: cell-based, human
Hct116 = assay: Cell viability, Hct116 colon cancer cells; type: cell-based, human; conditions: for IC50 (−LogM): Hct116, Colon
CT116P53 = assay: Cell viability, CT116P53 colon cancer cells; type: cell-based, human
HKE3 = assay: Cell viability, HKE3 colon cancer cells; type: cell-based, human; conditions: HKE3, Colon
H322 cells = assay: Cell viability, H322 lung cancer cells; type: cell-based, human
H1299 cells = assay: Cell viability, H1299 lung cancer cells; type: cell-based, human; conditions: for IC50 (−LogM): h1299, Lung
AsPC-1 = assay: Cell viability, AsPC-1 pancreatic cancer cells; type: cell-based, human; conditions: for IC50 (−LogM): ASPC1, Pancrease
DLD1 = assay: Cell viability, DLD1 colon cancer cells; type: cell-based, human
Heb46 = assay: Cell viability, Heb46 kidney cells; type: cell-based
Heb44 = assay: Cell viability, Heb44 kidney cells; type: cell-based
Capanc-1 = assay: Cell viability, Capanc-1 pancreatic cancer cells; type: cell-based, human; conditions: capanc1, Pancrease
Sw620 = assay: Cell viability, Sw620 colon cancer cells; type: cell-based, human; conditions: for IC50 (−LogM): Sw620, Colon
miapac = assay: Cell viability, miapac pancreatic cancer cells; type: cell-based, human
H2122 = assay: Cell viability, H2122 lung cancer cells; type: cell-based, human
H2009 = assay: Cell viability, H2009 lung cancer cells; type: cell-based, human
H23 = assay: Cell viability, H23 lung cancer cells; type: cell-based, human
H1933 = assay: Cell viability, H1933 lung cancer cells; type: cell-based, human
H1395 = assay: Cell viability, H1395 lung cancer cells; type: cell-based, human
H2087 = assay: Cell viability, H2087 lung cancer cells; type: cell-based, human
Ovcar3 = assay: Cell viability, Ovcar3 ovary cancer cells; type: cell-based
Ovcar443 = assay: Cell viability, Ovcar443 ovary cancer cells; type: cell-based
Hey = assay: Cell viability, Hey ovary cancer cells; type: cell-based
Ovca429 = assay: Cell viability, Ovca429 ovary cancer cells; type: cell-based
SKOV3 = assay: Cell viability, SKOV3 ovary cancer cells; type: cell-based
T29Kt1 cells = conditions: Table 1, value is the negative log10 of mol/L
H460 cells [1] = assay: cells; conditions: Homo sapiens
H460 cells [2] = conditions: H460, Lung
[3] = Homo sapiens, read-out: IC50 (−LogM) (converted)

CC(=O)O[C@H]1C(=O)[C@@]2(C)[C@H]([C@H](OC(=O)c3ccccc3)[C@]3(O)C[C@H](OC(=O)[C@H](O)[C@@H](NC(=O)c4ccccc4)c4ccccc4)C(C)=C1C3(C)C)[C@]1(OC(C)=O)CO[C@@H]1C[C@@H]2O [taxol, paclitaxol, reference compound]
PKCiota aggregation in the nucleus, T29Kt1 cells (PKCiota): did not induce PKCiota aggregation

O=c1[nH]cc(F)c(=O)[nH]1 [Oncrasin 5-FLY, 5-fluorouracil, reference compound]
PKCiota aggregation in the nucleus, T29Kt1 cells (PKCiota): did not induce PKCiota aggregation

O=Cc1cn(Cc2ccc(Br)cc2)c2ccccc12 [Oncrasin K029, 1-(4-bromobenzyl)-1H-indole-3-carbaldehyde]
IC50 (−LogM) (H226B cells; first H226B line, listed as Onk29): 7.1 −LogM | IC50 (−LogM) (H226B cells; second H226B line, listed as Onk29): 5.5 −LogM | IC50 (H226B cells; read-out: IC50 (−LogM), H226B, Lung, first H226B line (converted)): 0.126 µM | IC50 (H226B cells; read-out: IC50 (−LogM), H226B, Lung, second H226B line (converted)): 5.01 µM | IC50 (−LogM) (A549 cells; listed as OnK29): 5 −LogM | IC50 (−LogM) (A549 cells; listed as Onk29): >4.5 −LogM | IC50 (A549CK8; [3]): 3.16 µM | IC50 (−LogM) (Hct116; listed as OnK29): 5.5 −LogM | IC50 (Hct116; Homo sapiens, HCT-116, read-out: IC50 (−LogM), Hct116, Colon (converted)): 2.51 µM | IC50 (CT116P53; [3]): < 31.6 µM | IC50 (−LogM) (HKE3; first HKE3 line, listed as OnK29): 6.6 −LogM | IC50 (−LogM) (HKE3; first HKE3 line, listed as Onk29): 7 −LogM | IC50 (−LogM) (HKE3; second HKE3 line, listed as OnK29): 5.8 −LogM | IC50 (−LogM) (HKE3; second HKE3 line, listed as Onk29): 6.3 −LogM | IC50 (H322 cells; Homo sapiens, NCI-H322, read-out: IC50 (−LogM) (converted)): 31.6 µM | IC50 (H1299 cells; Homo sapiens, NCI-H1299, read-out: IC50 (−LogM), h1299, Lung (converted)): 12.6 µM | IC50 (−LogM) (H1299 cells; listed as OnK29): 5.1 −LogM | IC50 (−LogM) (AsPC-1; listed as OnK29): 5.3 −LogM | IC50 (AsPC-1; Homo sapiens, ASPC1, read-out: IC50 (−LogM), ASPC1, Pancrease (converted)): 3.98 µM | IC50 (DLD1; Homo sapiens, DLD-1, read-out: IC50 (−LogM) (converted)): < 31.6 µM | IC50 (−LogM) (Heb46; listed as OnK29): 5.6 −LogM | IC50 (−LogM) (Heb46; listed as Onk29): 6.6 −LogM | IC50 (−LogM) (Heb44; listed as OnK29): 7.2 −LogM | IC50 (−LogM) (Heb44; listed as Onk29): 8.1 −LogM | IC50 (−LogM) (Capanc-1; listed as OnK29): 5 −LogM | IC50 (−LogM) (Capanc-1; listed as Onk29): 6 −LogM | IC50 (Sw620; Homo sapiens, SW-620, read-out: IC50 (−LogM), Sw620, Colon (converted)): 31.6 µM | IC50 (−LogM) (Sw620; listed as OnK29): >4.5 −LogM | IC50 (miapac; Homo sapiens, Pancreatic cancer cell, read-out: IC50 (−LogM) (converted)): < 31.6 µM | IC50 (H2122; Homo sapiens, NCI-H2122, read-out: IC50 (−LogM) (converted)): 2 µM | IC50 (H2009; Homo sapiens, NCI-H2009, read-out: IC50 (−LogM) (converted)): < 31.6 µM | IC50 (H23; Homo sapiens, NCI-H23, read-out: IC50 (−LogM) (converted)): 31.6 µM | IC50 (H1933; [3]): 31.6 µM | IC50 (H1395; Homo sapiens, NCI-H1395, read-out: IC50 (−LogM) (converted)): 31.6 µM | IC50 (H2087; Homo sapiens, NCI-H2087, read-out: IC50 (−LogM) (converted)): 31.6 µM | IC50 (Ovcar3; Homo sapiens, OVCAR-3): 5.01 µM | IC50 (Ovcar443): 10 µM | IC50 (Hey): 31.6 µM | IC50 (Ovca429): 3.16 µM | IC50 (SKOV3; Homo sapiens, SK-OV-3): 3.16 µM | IC50 in T29k cells (T29Kt1 cells; listed as K29): 6.6 | IC50 in T29k cells (T29Kt1 cells): 5 | IC50 (H460 cells [1]; NCI-H460, read-out: IC50 (−LogM), H460, Lung (converted)): 0.00316 µM | IC50 (H460 cells [1]; NCI-H460, read-out: IC50 in H460 cells, Table 1): 0.00316 µM

OCc1cn(Cc2ccc(Br)cc2)c2ccccc12 [Oncrasin K73, 1H-Indole-3-methanol, 1-{(4-bromophenyl)methyl]-(9CI)]
IC50 (−LogM) (H226B cells; first H226B line): 7 −LogM | IC50 (−LogM) (H226B cells; second H226B line): 5.8 −LogM | IC50 (−LogM) (A549 cells): >4.5 −LogM | IC50 (−LogM) (A549CK8; A549CK8, Lung): 5.5 −LogM | IC50 (−LogM) (Hct116): 5.5 −LogM | IC50 (−LogM) (CT116P53; CT116P53, Colon): >4.5 −LogM | IC50 (−LogM) (HKE3; first HKE3 line): 6.5 −LogM | IC50 (−LogM) (HKE3; second HKE3 line): 6.1 −LogM | IC50 (−LogM) (H322 cells; H322, Lung): >4.5 −LogM | IC50 (−LogM) (H1299 cells): >4.5 −LogM | IC50 (−LogM) (AsPC-1): 5.5 −LogM | IC50 (−LogM) (DLD1; DLD1, Colon): >4.5 −LogM | IC50 (−LogM) (Heb46): 6.1 −LogM | IC50 (−LogM) (Heb44): 7.4 −LogM | IC50 (−LogM) (Capanc-1): 5.5 −LogM | IC50 (−LogM) (Sw620): >4.5 −LogM | IC50 (−LogM) (miapac; miapac, Pancrease): >4.5 −LogM | IC50 (−LogM) (H2122; H2122, Lung): 5.6 −LogM | IC50 (−LogM) (H2009; H2009, Lung): >4.5 −LogM | IC50 (−LogM) (H23; H23, Lung): 4.5 −LogM | IC50 (−LogM) (H1933; H1933, Lung): 4.5 −LogM | IC50 (−LogM) (H1395; H1395, Lung): >4.5 −LogM | IC50 (−LogM) (H2087; H2087, Lung): 4.5 −LogM | IC50 (−LogM) (Ovcar3): 5.9 −LogM | IC50 (−LogM) (Ovcar443): 4.8 −LogM | IC50 (−LogM) (Hey): 4.5 −LogM | IC50 (−LogM) (Ovca429): 5.5 −LogM | IC50 (−LogM) (SKOV3): 5.5 −LogM | IC50 in T29k cells (T29Kt1 cells): 6.4 | IC50 (−LogM) (H460 cells [2]): 8.5 −LogM
